Experimental data: patent publication US20040258676A1, “Stimulation of the activity of an isoform of lysyl oxidase for combating against some pathologies due to an incomplete, absent or disorganized elastogenesis” (COLETICA, priority 2003, published 2004)

Key:
elastin (Eln) mRNA = assay: Screening of actives by qualitative RT-PCR, elastin mRNA in aged adult fibroblasts (Example 9); format: cell-based; settings: actives at 1% (v/v), 24 hours, fibroblasts of normal human skin of aged adults; compared to actin and to negative control
Method: (§1) The actives were tested at 1% (v/v) on fibroblasts of normal human skin (originating from healthy <<aged >> adults). The culture was carried out, e.g. in a monolayer on 24-well culture plates, in a defined medium without serum (Fibroblast Basal Medium, Promocell, Germany). The cells were sown, e.g. at 40,000 per cm^2. At the confluence, the cells are placed in contact with the actives advantageously for 24 hours. In parallel, a non-treated control (medium alone) and three positive controls (TGF-β at 1 ng/ml, IL-1α at 50 pg/ml and Phytokine® (Coletica, France) at 2%(v/v)) are advantageously carried out, e.g. on the same culture plate. The TGF-β at 1 ng/ml and the IL-1α at 50 pg/ml were tested beforehand and the stimulation of the synthesis of elastin mRNA induced by these two cytokines at these concentrations was verified by an analysis of the mRNAs, e.g. by quantitative RT-PCR (×10 for TGF-β and x6 for IL-1 alpha). […] The total RNAs are extracted e.g. with the aid of an extraction kit of 96 wells on silica columns and were determined on a 96-well spectrophotometer at 260 nm (purity indicator: protein determination at 280 nm). […] The photographs of the gels were analyzed by image analysis and quantification of the intensity of the bands (Phoretix1D Quantifier, Non Linear Dynamics Ltd, USA). […]

LOX mRNA = assay: Screening of actives by qualitative RT-PCR, LOX mRNA in aged adult fibroblasts (Example 9); format: cell-based; settings: actives at 1% (v/v), 24 hours, fibroblasts of normal human skin of aged adults; compared to actin and to negative control
Method: as §1

elastin mRNA = assay: Verification of positive controls: stimulation of the synthesis of elastin mRNA by quantitative RT-PCR; format: cell-based, human; settings: TGF-β at 1 ng/ml
Method: The TGF-β at 1 ng/ml and the IL-1α at 50 pg/ml were tested beforehand and the stimulation of the synthesis of elastin mRNA induced by these two cytokines at these concentrations was verified by an analysis of the mRNAs, e.g. by quantitative RT-PCR (×10 for TGF-β and x6 for IL-1 alpha). After the time of placing the actives in contact with the cells, e.g. 24 hours, the media are removed and the cells are preserved e.g. by dry freezing at −80° C. after a rinsing in phosphate buffer pH 7.4. The total RNAs are extracted e.g. with the aid of an extraction kit of 96 wells on silica columns and were determined on a 96-well spectrophotometer at 260 nm (purity indicator: protein determination at 280 nm). […]
The actives were tested at 1% (v/v) on human scar tissue skin fibroblasts (surgical recovery of hypertropic scar after caesarean) in premature passage (lower than 5 passages). […] The TGF-β at 1 ng/ml and the IL-1α at 50 pg/ml were tested beforehand and the stimulation of the synthesis of elastin mRNA induced by these two cytokines at these concentrations was verified by an analysis of the mRNAs, e.g. by quantitative RT-PCR (x10 for TGF-β and x6 for IL-1 alpha). […] The total RNAs are extracted e.g. with the aid of an extraction kit of 96 wells on silica columns and were determined on a 96-well spectrophotometer at 260 nm (purity indicator: protein determination at 280 nm). […]

Compound	Eln Control multiplied by: (elastin (Eln) mRNA)	LOX Control multiplied by: (LOX mRNA)	stimulation of the synthesis of elastin mRNA (elastin mRNA)
OC[C@@H](O)[C@H](O)[C@@H](O)CO [Xylitol]	0.27	3.10	
TGF-β			10 x
